Measurements from patent US20240400564A1 (Syndax Pharmaceuticals, Inc, priority 2021, published 2024).

test system: MLLr leukemia cell line MV4-11; assay: Cell proliferation assay MV4;11 (CellTiter-Glo, 72 hours); assay type: cell-based; settings: Homo sapiens; MV4-11 cells, 72 hours, CellTiter-Glo; read-out: MV4; 11 IC50
Method: Compounds were evaluated for its capacity to inhibit the proliferation of the MLLr leukemia cell line MV4-11 that harbors an MLL1-AF4 fusion protein. MV4-11 cells were cultured for 72 hours with limiting dilutions of compounds and viability was measured using CellTiter-Glo.
Compounds were dissolved to obtain as 10 mM solution in DMSO. The stock was diluted 1:5 to the top concentration of 2 mM in 100% DMSO. For IC50 determination, serial 1:3.16 dilutions were prepared in 100% DMSO by diluting 20 μL into 43.5 μL of DMSO for 8 concentrations. Each prepared DMSO solution were further diluted 1:500 in the cell culture media to obtain the 2× dosing solutions. The final concentrations of tested compounds in the cell culture media ranged from 0.632 nM to 2000 nM.
MV4-11 cells were cultured in IMDM with 10% FBS and 1× Penicillin-Streptomycin at 5% CO2 and 37° C. A cell suspension was prepared containing 15,000 cells/ml in the culture medium and 100 μL of this suspension was added per well to a 96-well cell culture plate. Then, 100 μL of 2× dosing media containing test compounds were added bringing the total volume to 200 μL. These cells were cultured for 72 hours at 37° C. and 5% CO2 in a humidified incubator.
After 72 hours, the cultured cells were mixed and 100 μL was transferred to a 96-well black plate. Cell Titer Glo (100 μl) was then added to this plate. The plate was mixed with shaking for 15 mins at RT, the luminescence was then measured using Tecan Spark 20M spectrophotometer. Cell Viability (%) was determined by RLU of test/RLU average vehicle control*100 and % max inhibition was determined by 100−(% cell viability remaining at the top concentration of compound).

Row | IC50 [µM] | Compound
1 | < 0.1 | CCN(C(=O)c1cc(F)ccc1Oc1cncnc1N1CC2(CCN(C[C@@H]3CC[C@@H](NS(=O)(=O)c4cnn(C)c4)CO3)CC2)C1)C(C)C [Example 68, N-Ethyl-5-fluoro-N-isopropyl-2-((4-(7-(((2S,5R)-5-((1-methyl-1H-pyrazole)-4-sulfonamido)tetrahydro-2H-pyran-2-yl)methyl)-2,7-diazaspiro[3.5]nonan-2-yl)pyrimidin-5-yl)oxy)benzamide]
2 | < 0.1 | CC(C)N(C(=O)c1cc(F)ccc1Oc1cncnc1N1CC2(CCN(C[C@@H]3CC[C@@H](NS(=O)(=O)N4CCC[C@H]4C)CO3)CC2)C1)[C@@H]1CCOC1 [Example 204, 5-Fluoro-N-isopropyl-2-((4-(7-(((2S,5R)-5-(((R)-2-methylpyrrolidine)-1-sulfonamido)tetrahydro-2H-pyran-2-yl)methyl)-2,7-diazaspiro[3.5]nonan-2-yl)pyrimidin-5-yl)oxy)-N-((R)-tetrahydrofuran-3-yl)benzamide]
3 | < 0.1 | CC(C)N(C(=O)c1cc(F)ccc1Oc1cncnc1N1CC2(CCN(C[C@@H]3CC[C@@H](NS(=O)(=O)N4CCC[C@@H]4C)CO3)CC2)C1)[C@@H]1CCOC1 [Example 205, 5-Fluoro-N-isopropyl-2-((4-(7-(((2S,5R)-5-(((S)-2-methylpyrrolidine)-1-sulfonamido)tetrahydro-2H-pyran-2-yl)methyl)-2,7-diazaspiro[3.5]nonan-2-yl)pyrimidin-5-yl)oxy)-N-((R)-tetrahydrofuran-3-yl)benzamide]
4 | < 0.1 | CC(C)N(C(=O)c1cc(F)ccc1Oc1cncnc1N1CC2(CCN(C[C@@H]3CC[C@@H](NS(=O)(=O)N4CCC[C@@H]4C)CO3)CC2)C1)C1CCOC1 (stereo partly drawn) [Example 206, 5-Fluoro-N-isopropyl-2-((4-(7-(((2S,5R)-5-(((S)-2-methylpyrrolidine)-1-sulfonamido)tetrahydro-2H-pyran-2-yl)methyl)-2,7-diazaspiro[3.5]nonan-2-yl)pyrimidin-5-yl)oxy)-N-((S)-tetrahydrofuran-3-yl)benzamide]
5 | < 0.1 | CC(C)N(C(=O)c1cc(F)ccc1Oc1cncnc1N1CC2(CCN(C[C@@H]3CC[C@@H](NS(=O)(=O)N4CCC[C@H]4C)CO3)CC2)C1)C1CCOC1 (stereo partly drawn) [Example 207, 5-Fluoro-N-isopropyl-2-((4-(7-(((2S,5R)-5-(((R)-2-methylpyrrolidine)-1-sulfonamido)tetrahydro-2H-pyran-2-yl)methyl)-2,7-diazaspiro[3.5]nonan-2-yl)pyrimidin-5-yl)oxy)-N-((S)-tetrahydrofuran-3-yl)benzamide]
6 | < 0.1 | COC[C@H]1CCCN1S(=O)(=O)N[C@@H]1CC[C@@H](CN2CCC3(CC2)CN(c2ncncc2Oc2ccc(F)cc2C(=O)N(C(C)C)C(C)C)C3)OC1 [Example 212, 5-Fluoro-N,N-diisopropyl-2-((4-(7-(((2S,5R)-5-(((R)-2-(methoxymethyl)pyrrolidine)-1-sulfonamido)tetrahydro-2H-pyran-2-yl)methyl)-2,7-diazaspiro[3.5]nonan-2-yl)pyrimidin-5-yl)oxy)benzamide]
7 | < 0.1 | COC[C@@H]1CCCN1S(=O)(=O)N[C@@H]1CC[C@@H](CN2CCC3(CC2)CN(c2ncncc2Oc2ccc(F)cc2C(=O)N(C(C)C)C(C)C)C3)OC1 [Example 213, 5-Fluoro-N,N-diisopropyl-2-((4-(7-(((2S,5R)-5-(((S)-2-(methoxymethyl)pyrrolidine)-1-sulfonamido)tetrahydro-2H-pyran-2-yl)methyl)-2,7-diazaspiro[3.5]nonan-2-yl)pyrimidin-5-yl)oxy)benzamide]
8 | 0.1 to 1 | CN=S(=O)(N[C@@H]1CC[C@@H](CN2CCC3(CC2)CN(c2ncncc2Oc2ccc(F)cc2C(=O)N(C(C)C)C(C)C)C3)OC1)c1ccccc1 (stereo partly drawn) [Example 232, 5-Fluoro-N,N-diisopropyl-2-((4-(7-(((2S,5R)-5-(N′-methylphenylsulfonoamidimidamido)tetrahydro-2H-pyran-2-yl)methyl)-2,7-diazaspiro[3.5]nonan-2-yl)pyrimidin-5-yl)oxy)benzamide]
9 | < 0.1 | CC(C)N(C(=O)c1cc(F)ccc1Oc1cncnc1N1CC2(CCN(C[C@@H]3CC[C@@H](NS(=N)(=O)C4CC4)CO3)CC2)C1)C(C)C (stereo partly drawn) [Example 233, 2-((4-(7-(((2S,5R)-5-(Cyclopropanesulfonoamidimidamido)tetrahydro-2H-pyran-2-yl)methyl)-2,7-diazaspiro[3.5]nonan-2-yl)pyrimidin-5-yl)oxy)-5-fluoro-N,N-diisopropylbenzamide]
10 | < 0.1 | Cc1ncc(S(=O)(=O)N[C@@H]2CC[C@@H](CN3CCC4(CC3)CN(c3ncncc3Oc3ccc(F)cc3C(=O)N(C(C)C)C(C)C)C4)OC2)[nH]1 [Example 234, 5-Fluoro-N,N-diisopropyl-2-((4-(7-(((2S,5R)-5-((2-methyl-1H-imidazole)-5-sulfonamido)tetrahydro-2H-pyran-2-yl)methyl)-2,7-diazaspiro[3.5]nonan-2-yl)pyrimidin-5-yl)oxy)benzamide]
11 | < 0.1 | CC(C)N(CC(F)F)C(=O)c1cc(F)ccc1Oc1cncnc1N1CC2(CCN(C[C@@H]3CC[C@@H](NS(=O)(=O)N4CC(OCc5ccccc5)C4)CO3)CC2)C1 [Example 236, 2-((4-(7-(((2S,5R)-5-((3-(Benzyloxy)azetidine)-1-sulfonamido)tetrahydro-2H-pyran-2-yl)methyl)-2,7-diazaspiro[3.5]nonan-2-yl)pyrimidin-5-yl)oxy)-N-(2,2-difluoroethyl)-5-fluoro-N-isopropylbenzamide]
12 | < 0.1 | CC(C)N(CC(F)F)C(=O)c1cc(F)ccc1Oc1cncnc1N1CC2(CCN(C[C@@H]3CC[C@@H](NS(=O)(=O)N4CC(O)C4)CO3)CC2)C1 [Example 237, N-(2,2-Difluoroethyl)-5-fluoro-2-((4-(7-(((2S,5R)-5-((3-hydroxyazetidine)-1-sulfonamido)tetrahydro-2H-pyran-2-yl)methyl)-2,7-diazaspiro[3.5]nonan-2-yl)pyrimidin-5-yl)oxy)-N-isopropylbenzamide]
13 | < 0.1 | CC(C)N(CC(F)F)C(=O)c1cc(F)ccc1Oc1cncnc1N1CC2(CCN(C[C@@H]3CC[C@@H](NS(=O)(=O)N(C)CCOCc4ccccc4)CO3)CC2)C1 [Example 238]
14 | 0.1 to 1 | CCS(=O)(=O)N[C@@H]1CC[C@@H](CN2CCC3(CC2)CN(c2ncncc2Oc2ccc(F)cc2C(=O)N(C(C)C)[C@H]2[C@@H]4COC[C@@H]42)C3)OC1 [Example 253, N-((1R,5S,6r)-3-Oxabicyclo[3.1.0]hexan-6-yl)-2-((4-(7-(((2S,5R)-5-(ethylsulfonamido)tetrahydro-2H-pyran-2-yl)methyl)-2,7-diazaspiro[3.5]nonan-2-yl)pyrimidin-5-yl)oxy)-5-fluoro-N-isopropylbenzamide]
15 | < 0.1 | CCS(=O)(=O)N[C@@H]1CC[C@@H](CN2CCC3(CC2)CN(c2ncncc2Oc2ccc(F)cc2C(=O)N(C(C)C)[C@H]2C[C@H](O)C2)C3)OC1 [Example 259, 2-((4-(7-(((2S,5R)-5-(Ethylsulfonamido)tetrahydro-2H-pyran-2-yl)methyl)-2,7-diazaspiro[3.5]nonan-2-yl)pyrimidin-5-yl)oxy)-5-fluoro-N-((1r,3r)-3-hydroxycyclobutyl)-N-isopropylbenzamide]

molecular target: hERG (Homo sapiens, UniProt Q12809); assay: Patch clamp assay (hERG tail currents, whole-cell); settings: 10 μM compound
Sequence (Q12809 whole entry): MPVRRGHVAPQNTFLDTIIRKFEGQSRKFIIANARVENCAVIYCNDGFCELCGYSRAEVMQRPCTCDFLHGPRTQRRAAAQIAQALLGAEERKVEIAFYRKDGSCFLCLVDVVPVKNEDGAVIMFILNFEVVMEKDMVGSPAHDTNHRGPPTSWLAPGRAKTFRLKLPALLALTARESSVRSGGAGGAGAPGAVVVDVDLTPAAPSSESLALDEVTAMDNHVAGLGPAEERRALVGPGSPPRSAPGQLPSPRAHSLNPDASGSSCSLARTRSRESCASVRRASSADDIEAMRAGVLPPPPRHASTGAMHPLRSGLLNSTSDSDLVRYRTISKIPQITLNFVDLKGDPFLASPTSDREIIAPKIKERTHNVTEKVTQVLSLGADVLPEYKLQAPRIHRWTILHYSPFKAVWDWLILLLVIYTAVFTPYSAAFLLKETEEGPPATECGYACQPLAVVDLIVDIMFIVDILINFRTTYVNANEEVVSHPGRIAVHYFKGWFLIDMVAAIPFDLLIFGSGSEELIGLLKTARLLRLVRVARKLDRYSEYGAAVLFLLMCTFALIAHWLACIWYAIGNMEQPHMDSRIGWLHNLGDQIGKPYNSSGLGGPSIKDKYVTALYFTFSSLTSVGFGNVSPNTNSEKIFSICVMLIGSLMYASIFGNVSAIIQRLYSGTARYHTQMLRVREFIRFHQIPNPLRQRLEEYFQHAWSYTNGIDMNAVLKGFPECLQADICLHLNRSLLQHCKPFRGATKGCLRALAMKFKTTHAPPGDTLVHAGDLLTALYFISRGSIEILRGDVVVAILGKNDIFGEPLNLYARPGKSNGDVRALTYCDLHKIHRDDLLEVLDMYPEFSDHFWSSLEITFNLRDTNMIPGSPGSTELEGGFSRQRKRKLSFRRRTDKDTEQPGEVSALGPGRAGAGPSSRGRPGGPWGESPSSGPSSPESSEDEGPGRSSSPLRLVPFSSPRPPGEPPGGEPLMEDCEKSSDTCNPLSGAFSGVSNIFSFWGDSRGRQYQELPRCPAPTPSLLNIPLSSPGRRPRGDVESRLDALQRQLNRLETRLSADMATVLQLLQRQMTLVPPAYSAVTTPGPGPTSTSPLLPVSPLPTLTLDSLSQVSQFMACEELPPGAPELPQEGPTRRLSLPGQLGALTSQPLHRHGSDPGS

Row | Compound | hERG % Remaining
16 | CCN(C(=O)c1cc(F)ccc1Oc1cncnc1N1CC2(CCN(C[C@@H]3CC[C@@H](NS(=O)(=O)c4cnn(C)c4)CO3)CC2)C1)C(C)C [Example 68, N-Ethyl-5-fluoro-N-isopropyl-2-((4-(7-(((2S,5R)-5-((1-methyl-1H-pyrazole)-4-sulfonamido)tetrahydro-2H-pyran-2-yl)methyl)-2,7-diazaspiro[3.5]nonan-2-yl)pyrimidin-5-yl)oxy)benzamide] | +++ (≥66%)

same assay, conditions: 30 μM compound

Row | Compound | hERG % Remaining
17 | CCN(C(=O)c1cc(F)ccc1Oc1cncnc1N1CC2(CCN(C[C@@H]3CC[C@@H](NS(=O)(=O)c4cnn(C)c4)CO3)CC2)C1)C(C)C [Example 68, N-Ethyl-5-fluoro-N-isopropyl-2-((4-(7-(((2S,5R)-5-((1-methyl-1H-pyrazole)-4-sulfonamido)tetrahydro-2H-pyran-2-yl)methyl)-2,7-diazaspiro[3.5]nonan-2-yl)pyrimidin-5-yl)oxy)benzamide] | +++ (≥66%)
